Earlier results on one molecule are cited in patent US7129355B2, “Process for preparing kifunensine intermediate and kifunensine therefrom” (Industrial Research Limited, priority 2002, dated 2006).

The series relates to plant mannosidase II. The conditions noted are these: Elbein et al., J. Biol. Chem. 265, 15599, 1990.

Consider `O=C1N[C@@H]2[C@@H](O)[C@@H](O)[C@H](O)[C@@H](CO)N2C1=O` [Kifunensine], for which the “activity toward plant mannosidase II” value is “inactive”.
